Activity calls are given as the source filed them.
Tests used:
[1] = biological target: Nonstructural protein 1 (Influenza A virus, UniProt Q194T2); type: functional, Influenza A virus (A/California/07/2009(H1N1))
[2] = C. albicans growth with fluconazole, confirmation, fluorescence, retest (AID 2467); type: functional, cell-based
[3] = system: INS1; test: beta cell apoptosis inhibitors, cytokine rescue, dose response, luminescence, retest (AID 449756); type: functional, cell-based; details: Rattus norvegicus;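 also: cell death triggered by IL-1 beta plus TNF-alpha plus IFN-gamma mixture; protective hits raise ATP signal compared with cytokine alone wells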
[4] = NIH-3T3 fibroblast cytotoxicity, dose response, cytotoxicity control, cell-based, fluorescence, Alamar Blue, secondary assay (AID 2327); type: functional;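 also: NIH-3T3 mouse fibroblasts cultured with fluconazole at 8 µg/mL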
[5] = biological target: FAD-linked sulfhydryl oxidase ALR (Homo sapiens, UniProt P55789); test: inhibitors of human ALR sulfhydryl oxidase, dose response, biochemical, H2O2 detection, luminescence, cherry-pick (AID 493248)
Sequence of FAD-linked sulfhydryl oxidase ALR (P55789 whole entry): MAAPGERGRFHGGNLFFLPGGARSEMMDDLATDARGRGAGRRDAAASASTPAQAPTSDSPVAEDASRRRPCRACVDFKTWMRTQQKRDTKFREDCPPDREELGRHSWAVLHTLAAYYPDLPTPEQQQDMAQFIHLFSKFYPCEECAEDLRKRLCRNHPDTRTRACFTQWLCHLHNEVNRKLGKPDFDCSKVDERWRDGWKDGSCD

[6] = biological target: T1, Serine/threonine-protein phosphatase (Candida dubliniensis (strain CD36 / CBS 7987 / NCPF 3949 / NRRLY-17841) (Yeast), UniProt B9W6M3); test: calcineurin pathway inhibitors in yeast reporter, dose response, S. cerevisiae, CDRE-lacZ, luminescence, secondary (AID 2388); type: functional, cell-based;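 also: yeast reporter cells carrying a calcineurin-responsive lacZ construct stimulated with calcium chloride; luminescent beta-galactosidase reporter signal in whole cells rather than isolated phosphatase activity; potency for inhibition where a drop in reporter signal means calcineurin blockade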
T1 sequence (B9W6M3 whole entry): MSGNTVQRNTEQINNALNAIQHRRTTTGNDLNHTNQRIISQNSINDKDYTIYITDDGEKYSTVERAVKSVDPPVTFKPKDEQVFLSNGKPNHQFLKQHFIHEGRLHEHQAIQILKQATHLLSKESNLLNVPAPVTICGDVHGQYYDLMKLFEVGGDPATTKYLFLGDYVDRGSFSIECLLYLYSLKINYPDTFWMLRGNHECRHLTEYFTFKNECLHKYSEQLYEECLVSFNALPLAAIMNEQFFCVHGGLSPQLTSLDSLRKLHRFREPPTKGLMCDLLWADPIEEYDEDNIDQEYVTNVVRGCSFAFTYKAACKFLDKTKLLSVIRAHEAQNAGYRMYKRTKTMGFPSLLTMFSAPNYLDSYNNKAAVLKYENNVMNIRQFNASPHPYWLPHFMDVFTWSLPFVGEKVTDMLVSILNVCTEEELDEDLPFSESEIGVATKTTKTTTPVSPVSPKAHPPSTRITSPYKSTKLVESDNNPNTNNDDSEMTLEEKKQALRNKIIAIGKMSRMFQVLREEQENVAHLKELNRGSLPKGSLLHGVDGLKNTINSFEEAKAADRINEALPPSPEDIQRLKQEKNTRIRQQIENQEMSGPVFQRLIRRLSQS

[7] = biological target: ATP-dependent molecular chaperone HSP82 (Candida albicans (strain WO-1) (Yeast), UniProt C4YTQ8); test: loss of DOC-induced GRE-beta-galactosidase reporter signal, dose response, Hsp90 inhibitor project, S. cerevisiae, luminescence (AID 2400); type: functional, cell-based;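 also: beta-galactosidase luminescence from glucocorticoid response element reporter as proxy for Hsp90 function; inhibitor potency where signal loss means Hsp90 inhibition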
Sequence of ATP-dependent molecular chaperone HSP82 (C4YTQ8 whole entry): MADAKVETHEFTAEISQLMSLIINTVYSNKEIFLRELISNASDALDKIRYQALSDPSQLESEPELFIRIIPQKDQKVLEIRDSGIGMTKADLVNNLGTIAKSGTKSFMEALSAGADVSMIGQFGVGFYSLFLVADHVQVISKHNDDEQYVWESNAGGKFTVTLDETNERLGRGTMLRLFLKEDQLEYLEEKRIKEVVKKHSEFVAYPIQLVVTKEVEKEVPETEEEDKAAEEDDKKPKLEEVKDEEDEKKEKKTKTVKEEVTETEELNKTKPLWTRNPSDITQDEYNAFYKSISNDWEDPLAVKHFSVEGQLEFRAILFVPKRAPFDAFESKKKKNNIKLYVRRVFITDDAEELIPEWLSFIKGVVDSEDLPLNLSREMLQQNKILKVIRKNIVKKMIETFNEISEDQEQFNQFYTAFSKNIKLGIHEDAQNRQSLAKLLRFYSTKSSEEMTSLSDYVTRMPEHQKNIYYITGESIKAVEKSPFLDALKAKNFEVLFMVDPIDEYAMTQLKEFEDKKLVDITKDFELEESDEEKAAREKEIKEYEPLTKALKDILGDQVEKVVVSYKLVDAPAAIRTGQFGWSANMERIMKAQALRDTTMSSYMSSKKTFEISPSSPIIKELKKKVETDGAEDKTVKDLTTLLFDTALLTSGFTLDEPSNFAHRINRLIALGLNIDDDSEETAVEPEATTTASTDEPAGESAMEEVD

[8] = biological target: Cytochrome P450 2C19 (Homo sapiens, UniProt P33261); test: Cytochrome panel assay with activity outcomes. Panel member name: p450-cyp2c19 Compounds with AC50 equal or less than 10 uM are considered active; type: functional; details: read-out: AC50
Sequence of Cytochrome P450 2C19 (P33261 whole entry): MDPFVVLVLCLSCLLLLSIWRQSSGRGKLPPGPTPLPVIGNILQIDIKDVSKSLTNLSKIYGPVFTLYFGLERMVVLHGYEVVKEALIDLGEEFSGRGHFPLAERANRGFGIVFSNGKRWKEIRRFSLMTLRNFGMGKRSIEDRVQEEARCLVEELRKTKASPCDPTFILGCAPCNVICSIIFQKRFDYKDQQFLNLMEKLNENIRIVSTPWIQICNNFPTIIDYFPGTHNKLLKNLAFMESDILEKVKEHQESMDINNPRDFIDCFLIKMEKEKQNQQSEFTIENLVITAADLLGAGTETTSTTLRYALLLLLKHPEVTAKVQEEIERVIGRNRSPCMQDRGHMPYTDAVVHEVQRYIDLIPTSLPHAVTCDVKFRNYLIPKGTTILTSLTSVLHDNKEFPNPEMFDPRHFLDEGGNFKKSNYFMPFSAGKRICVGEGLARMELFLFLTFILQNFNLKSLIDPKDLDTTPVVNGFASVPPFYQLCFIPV

[9] = biological target: Cytochrome P450 3A4 (Homo sapiens, UniProt P08684);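 also: CYP3A4 tested as one member of a cytochrome P450 panel screen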
Sequence of Cytochrome P450 3A4 (P08684 whole entry): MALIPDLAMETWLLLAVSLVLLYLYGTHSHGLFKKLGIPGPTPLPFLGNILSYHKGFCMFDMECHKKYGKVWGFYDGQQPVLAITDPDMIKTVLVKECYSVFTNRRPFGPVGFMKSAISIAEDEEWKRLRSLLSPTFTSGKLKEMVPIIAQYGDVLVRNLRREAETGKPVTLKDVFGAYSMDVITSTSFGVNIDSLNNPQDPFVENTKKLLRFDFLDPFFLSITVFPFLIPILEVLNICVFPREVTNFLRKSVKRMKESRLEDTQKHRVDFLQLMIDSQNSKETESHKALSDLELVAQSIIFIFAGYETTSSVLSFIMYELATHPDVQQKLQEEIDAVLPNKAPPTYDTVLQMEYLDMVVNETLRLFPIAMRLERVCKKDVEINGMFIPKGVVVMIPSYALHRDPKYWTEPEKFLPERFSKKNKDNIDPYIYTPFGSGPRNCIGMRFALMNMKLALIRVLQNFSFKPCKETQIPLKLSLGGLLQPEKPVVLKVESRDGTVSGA

[10] = biological target: Cytochrome P450 2D6 (Homo sapiens, UniProt P10635);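 also: CYP2D6 member of a cytochrome P450 panel assay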
Sequence of Cytochrome P450 2D6 (P10635 whole entry): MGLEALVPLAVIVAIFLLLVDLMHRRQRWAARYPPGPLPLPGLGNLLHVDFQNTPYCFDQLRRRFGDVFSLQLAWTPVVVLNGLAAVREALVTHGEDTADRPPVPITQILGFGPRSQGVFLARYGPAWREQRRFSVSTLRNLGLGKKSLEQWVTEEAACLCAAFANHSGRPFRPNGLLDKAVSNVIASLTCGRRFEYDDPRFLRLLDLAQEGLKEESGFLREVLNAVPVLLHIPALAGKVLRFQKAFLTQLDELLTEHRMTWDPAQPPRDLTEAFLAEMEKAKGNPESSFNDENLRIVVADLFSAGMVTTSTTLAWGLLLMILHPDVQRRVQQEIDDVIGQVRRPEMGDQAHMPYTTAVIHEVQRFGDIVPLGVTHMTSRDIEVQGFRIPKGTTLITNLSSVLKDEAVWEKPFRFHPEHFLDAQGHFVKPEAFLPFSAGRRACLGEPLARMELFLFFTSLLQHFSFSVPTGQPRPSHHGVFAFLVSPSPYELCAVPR

[11] = microbe, parasite or virus in culture; type: functional; details: Mycobacterium tuberculosis
[12] = biological target: Genome polyprotein (dengue virus type 2, UniProt P29990); test: Dengue-2 NS5 methyltransferase inhibitors, primary screen, biochemical, confirmation dose response (AID 588689); type: functional
Sequence of Genome polyprotein (P29990 2492-3391 limits assumed): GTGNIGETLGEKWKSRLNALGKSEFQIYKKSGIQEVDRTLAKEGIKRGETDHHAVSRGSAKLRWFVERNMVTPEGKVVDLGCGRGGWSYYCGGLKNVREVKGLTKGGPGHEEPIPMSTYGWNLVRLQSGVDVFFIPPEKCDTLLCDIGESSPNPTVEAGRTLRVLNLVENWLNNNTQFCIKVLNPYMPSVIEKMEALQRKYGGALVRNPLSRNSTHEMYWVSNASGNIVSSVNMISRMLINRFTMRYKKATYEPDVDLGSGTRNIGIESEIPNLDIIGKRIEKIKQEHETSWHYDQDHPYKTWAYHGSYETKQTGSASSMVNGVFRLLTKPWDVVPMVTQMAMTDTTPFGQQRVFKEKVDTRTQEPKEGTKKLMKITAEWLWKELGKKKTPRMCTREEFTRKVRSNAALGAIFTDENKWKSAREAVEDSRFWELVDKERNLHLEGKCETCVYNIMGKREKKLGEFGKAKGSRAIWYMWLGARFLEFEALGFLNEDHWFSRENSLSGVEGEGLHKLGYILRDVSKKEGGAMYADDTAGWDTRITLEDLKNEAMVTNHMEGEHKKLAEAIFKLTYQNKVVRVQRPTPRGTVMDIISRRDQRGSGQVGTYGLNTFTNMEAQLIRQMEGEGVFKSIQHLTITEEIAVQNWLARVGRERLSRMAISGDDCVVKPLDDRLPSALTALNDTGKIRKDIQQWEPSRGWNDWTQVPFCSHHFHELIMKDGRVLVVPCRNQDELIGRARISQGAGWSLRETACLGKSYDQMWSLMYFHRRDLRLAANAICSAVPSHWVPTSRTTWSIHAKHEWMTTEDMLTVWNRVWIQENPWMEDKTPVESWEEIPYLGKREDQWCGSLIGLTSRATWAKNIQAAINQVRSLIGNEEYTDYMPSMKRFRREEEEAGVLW

[13] = cytotoxicity toward NIH3T3 fibroblasts, dose response, counter-screen, cell-based, ATP luminescence, mouse fibroblasts (AID 2010); type: functional;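 also: cells exposed to compound for about 90 hours before reading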
[14] = system: Streptococcus; test: Group A Streptococcus viability loss, dose response, counter-screen for streptokinase expression inhibitor project, luminescence, BacTiterGlo (AID 1915); type: functional, organism-based;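 also: potency for reduction of bacterial viability or growth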
[15] = system: Vero; test: cells; type: functional; details: Chlorocebus sabaeus
[16] = cells; type: functional, cell-based
[17] = Counterscreen for AddAB inhibitors: absorbance-based bacterial cell-based high throughput dose response assay for inhibitors of bacterial viability. [Related pubchem assays (depositor defined):AID435030, AID449728, AID449731, AID488942, AID488955, AID488956]; type: functional
[18] = control 3'UTR Renilla luciferase suppression, dose response, counter-screen for Shn3 inhibitor project, cell-based, Clone20-Shn3RL, cherry-picked (AID 624133); type: functional
[19] = HepG2 cell cytotoxicity, dose response, cytotoxicity control for Shn3 inhibitor project, CellTiter-Glo, cherry-picked (AID 624134); type: functional, cell-based
[20] = Shn3 3'UTR reporter inhibitors, dose response, cell-based, Clone20 osteoblasts, firefly luciferase, cherry-picked (AID 624132); type: functional;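 also: firefly luciferase luminescence from reporter carrying the Shn3 3'UTR in osteoblasts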
[21] = inhibitors of intracellular T. cruzi replication, confirmation, NIH3T3 host cells, beta-gal luminescence (AID 2044); type: functional, cell-based;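 also: intracellular parasites grown in NIH/3T3 mouse fibroblasts as host cells; luminescent beta-galactosidase reporter signal from transgenic T. cruzi replicating inside host cells; inhibitors lower the luminescence signal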
[22] = biological target: T2, Exodeoxyribonuclease V (Escherichia coli (strain K12), UniProt P04993+P07648+P08394); test: E. coli RecBCD inhibitors, dose response, counter-screen for AddAB inhibitor project, absorbance, V66 E. coli, mutant T4 phage (AID 492957); type: functional, cell-based, Escherichia coli str. K-12 substr. MG1655
T2 sequence (P04993 whole entry): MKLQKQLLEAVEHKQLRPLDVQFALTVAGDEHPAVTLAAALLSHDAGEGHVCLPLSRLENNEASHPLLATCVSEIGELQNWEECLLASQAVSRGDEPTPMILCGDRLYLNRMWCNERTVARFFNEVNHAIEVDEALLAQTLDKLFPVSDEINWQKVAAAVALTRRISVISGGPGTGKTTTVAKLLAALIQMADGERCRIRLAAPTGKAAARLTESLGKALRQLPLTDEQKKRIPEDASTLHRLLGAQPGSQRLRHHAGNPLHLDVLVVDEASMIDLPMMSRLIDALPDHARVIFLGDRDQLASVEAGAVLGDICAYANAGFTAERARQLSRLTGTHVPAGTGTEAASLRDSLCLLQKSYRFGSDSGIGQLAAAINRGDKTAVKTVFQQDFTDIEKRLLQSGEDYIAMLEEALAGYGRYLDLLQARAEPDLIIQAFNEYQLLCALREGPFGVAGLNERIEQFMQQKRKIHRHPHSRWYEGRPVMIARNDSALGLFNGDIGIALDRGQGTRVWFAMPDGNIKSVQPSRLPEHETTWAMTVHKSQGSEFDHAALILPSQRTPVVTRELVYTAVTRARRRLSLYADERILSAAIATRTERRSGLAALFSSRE
T2 sequence (P07648 whole entry): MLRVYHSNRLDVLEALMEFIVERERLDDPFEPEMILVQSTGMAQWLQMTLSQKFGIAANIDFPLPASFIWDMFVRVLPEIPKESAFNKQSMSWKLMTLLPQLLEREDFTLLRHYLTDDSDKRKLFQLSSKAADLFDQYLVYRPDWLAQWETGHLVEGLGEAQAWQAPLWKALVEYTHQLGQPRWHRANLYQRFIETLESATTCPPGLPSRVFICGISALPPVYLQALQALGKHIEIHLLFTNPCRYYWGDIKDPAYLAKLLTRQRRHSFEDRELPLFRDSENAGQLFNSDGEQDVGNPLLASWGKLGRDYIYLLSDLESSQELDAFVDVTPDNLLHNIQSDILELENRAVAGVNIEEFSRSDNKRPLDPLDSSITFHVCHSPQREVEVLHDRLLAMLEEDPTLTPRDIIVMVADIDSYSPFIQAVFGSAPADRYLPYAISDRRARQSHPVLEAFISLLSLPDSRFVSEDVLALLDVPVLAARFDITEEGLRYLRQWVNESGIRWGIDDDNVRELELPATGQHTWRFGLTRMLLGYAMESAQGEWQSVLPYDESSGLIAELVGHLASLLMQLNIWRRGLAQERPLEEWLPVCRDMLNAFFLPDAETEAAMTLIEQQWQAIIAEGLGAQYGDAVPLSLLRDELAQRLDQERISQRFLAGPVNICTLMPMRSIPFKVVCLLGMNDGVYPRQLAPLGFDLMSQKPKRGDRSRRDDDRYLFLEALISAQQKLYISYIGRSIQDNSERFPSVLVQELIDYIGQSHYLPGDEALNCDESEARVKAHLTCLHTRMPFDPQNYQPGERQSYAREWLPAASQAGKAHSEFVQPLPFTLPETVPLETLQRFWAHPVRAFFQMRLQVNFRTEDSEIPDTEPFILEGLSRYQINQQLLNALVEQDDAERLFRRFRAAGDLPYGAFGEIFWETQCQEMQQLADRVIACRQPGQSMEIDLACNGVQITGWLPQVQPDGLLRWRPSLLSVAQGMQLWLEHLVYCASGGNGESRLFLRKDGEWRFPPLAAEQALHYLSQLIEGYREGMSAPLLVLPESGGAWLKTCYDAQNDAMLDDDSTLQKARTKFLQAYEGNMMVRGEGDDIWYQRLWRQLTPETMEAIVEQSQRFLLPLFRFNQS
T2 sequence (P08394 whole entry): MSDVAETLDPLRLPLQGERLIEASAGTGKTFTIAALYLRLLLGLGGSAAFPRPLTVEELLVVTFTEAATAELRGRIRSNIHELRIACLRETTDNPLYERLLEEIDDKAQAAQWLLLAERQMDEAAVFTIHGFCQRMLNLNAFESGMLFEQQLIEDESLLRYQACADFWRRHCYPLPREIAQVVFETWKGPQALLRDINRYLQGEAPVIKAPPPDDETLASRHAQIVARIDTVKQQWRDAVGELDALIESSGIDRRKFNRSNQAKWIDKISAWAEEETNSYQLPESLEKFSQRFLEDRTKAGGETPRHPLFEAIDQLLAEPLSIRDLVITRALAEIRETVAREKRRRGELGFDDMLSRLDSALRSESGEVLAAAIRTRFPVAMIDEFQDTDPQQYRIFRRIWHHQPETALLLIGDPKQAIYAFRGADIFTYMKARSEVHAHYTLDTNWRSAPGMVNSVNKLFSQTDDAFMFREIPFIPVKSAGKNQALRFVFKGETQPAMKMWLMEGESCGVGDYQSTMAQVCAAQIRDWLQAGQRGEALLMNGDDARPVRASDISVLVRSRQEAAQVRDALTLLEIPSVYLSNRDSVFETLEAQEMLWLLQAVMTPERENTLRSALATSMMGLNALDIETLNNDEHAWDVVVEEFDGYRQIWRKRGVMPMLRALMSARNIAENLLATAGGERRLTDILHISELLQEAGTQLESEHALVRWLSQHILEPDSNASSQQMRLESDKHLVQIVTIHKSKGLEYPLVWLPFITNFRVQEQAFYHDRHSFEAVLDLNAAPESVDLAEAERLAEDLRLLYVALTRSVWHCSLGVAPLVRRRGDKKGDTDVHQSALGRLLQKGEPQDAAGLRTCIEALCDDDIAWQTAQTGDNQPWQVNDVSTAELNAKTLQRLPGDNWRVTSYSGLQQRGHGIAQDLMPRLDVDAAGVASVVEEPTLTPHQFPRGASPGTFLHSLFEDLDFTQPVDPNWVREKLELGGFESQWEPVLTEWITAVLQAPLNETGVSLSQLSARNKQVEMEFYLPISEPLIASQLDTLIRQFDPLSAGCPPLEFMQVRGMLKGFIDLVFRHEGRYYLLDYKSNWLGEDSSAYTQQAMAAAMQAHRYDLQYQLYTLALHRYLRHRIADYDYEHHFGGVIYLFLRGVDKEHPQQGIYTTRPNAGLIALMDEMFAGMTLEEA

[23] = system: Streptococcus sp. 'group A'; test: growth inhibition of control SK(-) GAS strain, dose response, counter-screen for streptokinase expression inhibitor project, luminescence, kanamycin, BacTiterGlo, confirmation (AID 1900); type: functional, organism-based
[24] = cells; type: functional, cell-based; remark: listed apart in the source

Sequence of Nonstructural protein 1 (Q194T2 whole entry): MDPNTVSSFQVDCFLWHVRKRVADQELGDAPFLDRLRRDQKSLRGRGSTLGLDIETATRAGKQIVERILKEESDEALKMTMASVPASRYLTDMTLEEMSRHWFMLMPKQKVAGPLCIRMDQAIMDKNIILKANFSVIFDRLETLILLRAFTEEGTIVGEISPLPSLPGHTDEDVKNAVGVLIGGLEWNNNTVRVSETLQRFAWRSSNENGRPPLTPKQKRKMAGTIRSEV

With `Oc1ccc(N=Nc2nccs2)c(O)c1` the IC50 [1] was 11.4 µM (active), the EC50 [2] was 1.19 µM (active) and the AC50 [3] was 2.78 µM (active). For the same compound, the EC50 [4] was 16 µM (inconclusive), the AC50 [5] was 4.55 µM (active) and the EC50 [6] was > 180 µM (inactive). The EC50 [7] was 21.8 µM (active).

In the case of `O=C(Nc1cccc(F)c1)N1CCC2(CC1)CCN(C(=O)c1ccco1)CC2`, the AC50 [8] is reported as 10 µM (inconclusive) and the AC50 [9] is reported as “inconclusive”.

For `O=C(c1cc(C(F)(F)F)cc(C(F)(F)F)c1)N1CCC2(CCN(Cc3nccs3)CC2)CC1`, the AC50 [9] was “inconclusive” and the AC50 [10] was 10 µM (inconclusive).

In the case of `Cn1c(=O)c(-c2ccc(F)cc2)nc2cnc(Oc3ccccc3)nc21`, the AC50 [9] is reported as “inconclusive”.

In the case of `O=[N+]([O-])c1nn(-c2ccc(Cl)cc2)[n+]([O-])c1NCc1cccnc1`, the EC50 [2] is reported as 1.11 µM (active), the EC50 [4] is reported as > 160 µM (inactive) and the CC50 [11] is reported as > 40 µM (active). The EC50 [6] was > 180 µM (inactive) and the EC50 [7] was > 150 µM (inactive).

For `C=CCOc1ccc(/C=C2/C(=O)ON=C2C)cc1OCC`, the IC50 [12] was > 100 µM (active).

With `CCCC(=O)NC(c1ccc(Cl)cc1Cl)c1ccc2cccnc2c1O` (stereo unspecified) the EC50 [13] was 0.543 µM (active), the AC50 [3] was 0.491 µM (active) and the EC50 [14] was 7.38 µM (active). The CC50 [15] was 1.15 µM (active), the EC50 [16] was > 350 µM (not active) and the IC50 [17] was > 119 µM (inactive). The AC50 [18] was 3.61 µM (active), the AC50 [19] was > 70 µM (inactive) and the AC50 [20] was 0.638 µM (active). The EC50 [21] was 0.102 µM (active), the IC50 [22] was > 119 µM (inactive) and the EC50 [23] was 1.01 µM (active). For the same compound, the EC50 [24] was 7.39 µM (active).
